{"source": "patent US10058616B2", "about": "“Pharmaceutical compositions to reduce complications of ocular steroid” (TAIWAN LIPOSOME COMPANY, LTD., priority 2012, dated 2018)", "origin": "cited, not measured here", "note": "Where two headings read alike, the source gives them in different places."}
{"compound": "CC1(C)O[C@@H]2C[C@H]3[C@@H]4CCC5=CC(=O)C=C[C@]5(C)[C@@]4(F)[C@@H](O)C[C@]3(C)[C@]2(C(=O)CO)O1", "note": "[triamcinolone acetonide]", "values": [{"measurement": "progression of cataract, patients", "setting": "patients; after intravitreal steroid injection", "result": 22.72, "unit": "%"}, {"measurement": "incidence of increased IOP after intravitreal steroid injection", "setting": "patients; at 3 months", "result": 75, "unit": "%"}, {"measurement": "incidence of increased IOP after intravitreal steroid injection", "setting": "patients; at 6 months", "result": 47.05, "unit": "%"}, {"measurement": "incidence of increased IOP after intravitreal steroid injection", "setting": "patients; at one month", "result": 57.69, "unit": "%"}]}
{"compound": "dexamethasone sodium phosphate [Non-associated DSP]", "values": [{"measurement": "half-life in the vitreous humor", "result": "about 3.5 hours"}]}
